Data reported in US10023587B2, “Oxabicycloheptanes and oxabicycloheptenes, their preparation and use” (LIXTE BIOTECHNOLOGY, INC., priority 2007, dated 2018).
pIC50: −log10 of the molar value. In brackets after ≈: the same amount, converted by molar mass. Read-outs that look alike come from different tables or passages of the source.

Legend:
NCI-H522 cells = experiment: CellTiter-Glo assay, NCI-H522; type: cell-based; conditions: Homo sapiens; NCI-H522 Lung adenoca, 72 hr; read-out: IC50 (50% Inhibition of Proliferation)
Experimental: (§1) MDA-MB-231, HT-29, NCI-H460, NCI-H522, NCI-H69, GXF-209, HepG2, OVAR-3, PANC-1, DU-145, LNCAP, HL-60, K-562, and MOLT-4 cell lines were either obtained from the American Type Culture Collection (ATCC; Manassas, Va.), or from the National Cancer Institute (NCI; Frederick, Md.). RPMI-1640 media, L-glutamine dipeptide (HyQ SG-200), and HEPES were obtained from Hyclone (Logan, Utah).
(§2) All cell lines were routinely cultured twice weekly in RPMI-1640 medium supplemented with 2 mM L-glutamine dipeptide, 10 mM HEPES, and 10% FBS.
(§3) The adherent cell lines MDA-MB-231, HT-29, NCI-H460, NCI-H522, GXF-209, HepG2, OVAR-3, PANC-1, DU-145, and LNCAP cells were each seeded into two 96-well plates at 2,500 cells per well in a total volume of 50 uL and incubated in a 37° C. humidified 5% CO2 cell culture incubator overnight. The suspension cell lines NCI-H69, HL-60, K-562, and MOLT-4 were each seeded into two 96-well plates at 10,000 cell per well in a total volume of 50 uL and incubated in a 37° C. humidified 5% CO2 incubator overnight.
(§4) This was followed by making 2× stocks of the final concentrations required in RPMI-1640 medium. […]
(§5) Briefly, plates were removed from the incubator and placed on the bench at room temperatures for 30 minutes. […] Luminescence was then recorded using the PerkinElmer Microbeta scintillation and luminescence counter (Trilux).

T. rubrum = experiment: Antifungal susceptibility testing (broth dilution), T. rubrum; type: cell-based, Trichophyton rubrum; conditions: for MIC: Trichophyton rubrum, read-out: minimum inhibitory concentration (MIC); for minimum inhibitory concentration (MIC): isolate 07-2055
Experimental: (§6) Anti-fungal testing was completed with a common lot for compounds 100 and 102.
(§7) A 10 mg portion of each powder was weighed out and added to 1 ml of sterile distilled water for compound 100 and DMSO for compound 102. The resulting concentration of […] was diluted to a working concentration of 640 μg/ml for each compound. All subsequent dilutions were also made using the respective diluents. Final testing concentrations ranged from 0.125-64 μg/ml.
(§8) A total of 23 isolates were tested to include 3 Candida albicans, 3 Candida glabrata, 3 Cryptococcus neoformans, 3 Aspergillus fumigatus, 3 Rhizopus oryzae, 3, Fusarium solani, 3 Pseudallescheria boydii, and 2 […] rubrum. All isolates were clinical isolates submitted to the Fungus Testing Laboratory for evaluation. Antifungal susceptibility testing was accomplished according to the methods outlined in the National Committee for Clinical Laboratory Standards, M-27A2, Reference Method for Broth Dilution Antifungal Susceptibility Testing of Yeasts; Approved Standard, and M38-A “Reference Method for Broth Dilution Antifungal Susceptibility Testing of Conidium-Forming Filamentous Fungi; Approved Standard”. This includes testing in RPMI-1640 with glutamine and without bicarbonate, an inoculum size of 0.5-2.5×10^3 for yeasts or 1-5×10^4 for moulds, and incubation at 35° C. for 24 and 48 hours.

NCI-H69 cells = experiment: CellTiter-Glo assay, NCI-H69; type: cell-based; conditions: Homo sapiens; NCI-H69 Lung small cell, 72 hr; read-out: IC50 (50% Inhibition of Proliferation)
Experimental: as §1, §2, §3, §4, §5

PANC-1 cells = experiment: CellTiter-Glo assay, PANC-1; type: cell-based; conditions: Homo sapiens; PANC-1 Pancreas, 72 hr; read-out: IC50 (50% Inhibition of Proliferation)
Experimental: as §1, §2, §3, §4, §5

F. solani = experiment: Antifungal susceptibility testing (broth dilution), F. solani; type: cell-based, Fusarium solani; conditions: for MIC: Fusarium solani, read-out: minimum inhibitory concentration (MIC)
Experimental: as §6, §7, §8

C. neoformans = experiment: Antifungal susceptibility testing (broth dilution), C. neoformans; type: cell-based, Cryptococcus neoformans; conditions: for MIC: Cryptococcus neoformans, read-out: minimum inhibitory concentration (MIC)
Experimental: as §6, §7, §8

DAOY cells = experiment: DAOY xenograft tumor growth in SCID mice; type: in vivo; conditions: subcutaneous in SCID mice, ip daily for 20 days (FIG. 18)
Experimental: For in vivo experiments, subcutaneously implanted tumor cells are allowed to grow over 7 days to a size of 5-7 mm. On day 7, drug administration is begun ip daily for 20 days. The maximum perpendicular diameters of the tumor masses are measured every 2 to 5 days. On the 21st day after initiation of treatment, the animals are sacrificed and dissected free of the subcutaneous tissues and measured.

MDA-MB-231 cells = experiment: CellTiter-Glo assay, MDA-MB-231; type: cell-based; conditions: Homo sapiens; MDA-MB-231 Breast, 72 hr; read-out: IC50 (50% Inhibition of Proliferation)
Experimental: as §1, §2, §3, §4, §5

DU-145 cells = experiment: CellTiter-Glo assay, DU-145; type: cell-based; conditions: Homo sapiens; DU-145 Prostate, 72 hr; read-out: IC50 (50% Inhibition of Proliferation)
Experimental: as §1, §2, §3, §4, §5

C. glabrata = experiment: Antifungal susceptibility testing (broth dilution), C. glabrata; type: cell-based, Candida glabrata; conditions: for MIC: Nakaseomyces glabratus, read-out: minimum inhibitory concentration (MIC)
Experimental: as §6, §7, §8

OVCAR-3 cells = experiment: CellTiter-Glo assay, OVCAR-3; type: cell-based; conditions: Homo sapiens; OVCAR-3 Ovary adenoca, 72 hr; read-out: IC50 (50% Inhibition of Proliferation)
Experimental: as §1, §2, §3, §4, §5

Structure (SMILES) | pIC50 (NCI-H522 cells) | minimum inhibitory concentration (MIC) (T. rubrum; 24 Hours) [µg/mL] | minimum inhibitory concentration (MIC) (T. rubrum; 48 Hours) [µg/mL] | pIC50 (NCI-H69 cells) | pIC50 (PANC-1 cells) | minimum inhibitory concentration (MIC) (F. solani; isolate 07-1755, 24 Hours) [µg/mL] | minimum inhibitory concentration (MIC) (F. solani; isolate 07-1755, 48 Hours) [µg/mL] | minimum inhibitory concentration (MIC) (F. solani; isolate 07-1867, 24 Hours) [µg/mL] | minimum inhibitory concentration (MIC) (F. solani; isolate 07-1867, 48 Hours) [µg/mL] | minimum inhibitory concentration (MIC) (C. neoformans; isolate 07-2737, 24 Hours) [µg/mL] | minimum inhibitory concentration (MIC) (C. neoformans; isolate 07-2737, 48 Hours) [µg/mL] | minimum inhibitory concentration (MIC) (C. neoformans; isolate 07-2829, 24 Hours) [µg/mL] | minimum inhibitory concentration (MIC) (C. neoformans; isolate 07-2829, 48 Hours) [µg/mL] | Effect on DAOY xenograft tumor growth (in words) (DAOY cells) | pIC50 (MDA-MB-231 cells) | pIC50 (DU-145 cells) | minimum inhibitory concentration (MIC) (C. glabrata; isolate 07-2965, 24 Hours) [µg/mL] | minimum inhibitory concentration (MIC) (C. glabrata; isolate 07-2965, 48 Hours) [µg/mL] | minimum inhibitory concentration (MIC) (C. glabrata; isolate 07-3013, 24 Hours) [µg/mL] | minimum inhibitory concentration (MIC) (C. glabrata; isolate 07-3013, 48 Hours) [µg/mL] | also measured
CC(C)(C)OC(=O)N1CCN(C(=O)C2C(C(=O)O)[C@H]3CC[C@@H]2O3)CC1 (stereo in doubt) [Compound 102, 4-(3-Carboxy-7oxa-bicyclo[2.2.1]heptane-2-carbonyl)piperazine-1-carboxylic acid tert-butyl ester] | 5.66 | 2 (≈ 5.64 µM) | 2 (≈ 5.64 µM) | 4.61 | 4.68 | >64 | >64 | >64 | >64 | >64 | >64 | >64 | >64 | inhibit the proliferation | 5.18 | 4.89 | >64 | >64 | >64 | >64 | MIC (T. rubrum; isolate 07-1743, 24 Hours): 2 µg/mL (≈ 5.64 µM); MIC (T. rubrum; isolate 07-1743, 48 Hours): 2 µg/mL (≈ 5.64 µM); Antifungal activity against T. rubrum (in words) (T. rubrum; testing concentrations 0.125-64 μg/ml): significant activity; MIC (F. solani; isolate 07-1399, 24 Hours): > 64 µg/mL; MIC (F. solani; isolate 07-1399, 48 Hours): > 64 µg/mL; MIC (C. neoformans; isolate 07-2665, 24 Hours): > 64 µg/mL; MIC (C. neoformans; isolate 07-2665, 48 Hours): > 64 µg/mL; MIC (C. glabrata; isolate 07-2964, 24 Hours): > 64 µg/mL; MIC (C. glabrata; isolate 07-2964, 48 Hours): > 64 µg/mL; pIC50 (OVCAR-3 cells): 5.29
CN1CCN(C(=O)C2C(C(=O)O)[C@H]3CC[C@@H]2O3)CC1 (some centres unmarked) [Compound 100, Endothall 4-Methylpiperazine Monoamide] | 5.47 | >64 | >64 | 4.62 | 4.60 | >64 | >64 | >64 | >64 | >64 | >64 | >64 | >64 | inhibit the proliferation | 5.02 | 4.79 | >64 | >64 | >64 | >64 | MIC (T. rubrum; 24 h): > 64 µg/mL; MIC (T. rubrum; 48 h): > 64 µg/mL; MIC (F. solani; 24 h): > 64 µg/mL; MIC (F. solani; 48 h): > 64 µg/mL; MIC (C. neoformans; 24 h): > 64 µg/mL; MIC (C. neoformans; 48 h): > 64 µg/mL; MIC (C. glabrata; 24 h): > 64 µg/mL; MIC (C. glabrata; 48 h): > 64 µg/mL; pIC50 (OVCAR-3 cells): 5.54
